Assay results taken from ChEMBL document CHEMBL1201862, “PubChem BioAssay data set” (2004).
Structures can show the parent of a compound that is named as a salt. The source made the active and inactive calls.

Key:
[1] = molecular target: Mitogen-activated protein kinase 10 (Homo sapiens, UniProt P53779); experiment: Dose response biochemical screening assay for inhibitors of c-Jun N-Terminal Kinase 3 (JNK3). [Related pubchem assays: 746 ]
[2] = molecular target: T1, Carboxy-terminal domain RNA polymerase II polypeptide A small phosphatase 1 (Homo sapiens, UniProt Q9GZU7); experiment: inhibitors of CTDSP1, concentration-response testing, biochemical assay, absorbance-based, actives from ultra-high-throughput screening (AID 540297); type: functional
T1 sequence (Q9GZU7 whole entry): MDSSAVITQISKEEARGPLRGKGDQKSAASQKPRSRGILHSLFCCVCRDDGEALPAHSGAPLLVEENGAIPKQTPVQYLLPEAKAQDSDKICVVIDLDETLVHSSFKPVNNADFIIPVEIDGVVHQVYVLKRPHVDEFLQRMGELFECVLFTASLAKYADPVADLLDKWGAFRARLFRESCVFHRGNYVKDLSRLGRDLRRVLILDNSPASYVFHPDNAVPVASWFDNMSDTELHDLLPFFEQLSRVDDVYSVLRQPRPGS

[3] = molecular target: T2, Low molecular weight phosphotyrosine protein phosphatase (Homo sapiens, UniProt P24666); type: functional; conditions: read-out: IC50_Mean;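 note: Dose-response confirmation assay measuring inhibition of LMPTP enzyme activity by fluorescence intensity read-out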
T2 sequence (P24666 whole entry): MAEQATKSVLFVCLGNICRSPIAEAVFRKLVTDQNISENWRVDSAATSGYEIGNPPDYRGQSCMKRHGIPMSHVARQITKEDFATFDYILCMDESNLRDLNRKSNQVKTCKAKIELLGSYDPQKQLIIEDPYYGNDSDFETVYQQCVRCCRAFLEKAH

INS1 = experiment: beta cell apoptosis inhibitors, cytokine rescue, dose response, luminescence, retest (AID 449756); type: functional, cell-based; conditions: Rattus norvegicus;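 note: cell death triggered by IL-1 beta plus TNF-alpha plus IFN-gamma mixture; protective hits raise ATP signal compared with cytokine alone wells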
[4] = molecular target: T3, Short transient receptor potential channel 4 (Mus musculus, UniProt Q9QUQ5); experiment: mouse TRPC4 channel activators, dose response, cell-based, HEK293 TRPC4/mu-opioid, Fluo-4 calcium (AID 434937); type: functional
T3 sequence (Q9QUQ5 whole entry): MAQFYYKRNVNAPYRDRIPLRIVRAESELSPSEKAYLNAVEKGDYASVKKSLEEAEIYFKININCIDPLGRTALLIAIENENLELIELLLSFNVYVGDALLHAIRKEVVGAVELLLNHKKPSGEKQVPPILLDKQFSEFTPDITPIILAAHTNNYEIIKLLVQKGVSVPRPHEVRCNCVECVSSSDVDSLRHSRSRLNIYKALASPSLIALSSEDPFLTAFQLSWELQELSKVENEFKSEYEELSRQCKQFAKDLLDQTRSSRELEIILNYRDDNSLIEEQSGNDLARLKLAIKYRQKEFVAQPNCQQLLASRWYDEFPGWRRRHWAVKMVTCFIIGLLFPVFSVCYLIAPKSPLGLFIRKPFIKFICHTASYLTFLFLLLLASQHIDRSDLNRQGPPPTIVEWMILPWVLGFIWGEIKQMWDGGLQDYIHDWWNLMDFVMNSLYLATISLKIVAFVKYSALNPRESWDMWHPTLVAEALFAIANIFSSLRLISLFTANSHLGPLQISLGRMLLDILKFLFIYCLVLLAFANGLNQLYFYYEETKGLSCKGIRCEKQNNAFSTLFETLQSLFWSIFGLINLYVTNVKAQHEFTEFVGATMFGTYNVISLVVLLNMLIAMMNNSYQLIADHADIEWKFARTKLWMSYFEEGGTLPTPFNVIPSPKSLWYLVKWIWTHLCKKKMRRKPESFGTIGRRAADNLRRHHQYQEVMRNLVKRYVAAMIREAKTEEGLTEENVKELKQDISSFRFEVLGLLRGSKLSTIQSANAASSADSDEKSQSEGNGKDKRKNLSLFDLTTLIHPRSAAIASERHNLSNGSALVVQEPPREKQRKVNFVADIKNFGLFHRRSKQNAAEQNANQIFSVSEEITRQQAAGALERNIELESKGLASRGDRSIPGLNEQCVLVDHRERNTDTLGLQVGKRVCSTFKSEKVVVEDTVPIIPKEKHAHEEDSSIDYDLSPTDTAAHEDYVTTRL

[5] = molecular target: Eukaryotic translation initiation factor 4E (Mus musculus, UniProt P63073); experiment: eIF4E–eIF4G protein interaction inhibitors, dose response, biochemical, TR-FRET (AID 855); type: functional;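 note: potency for disrupting eIF4E binding to eIF4GI seen as loss of FRET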
Chain of Eukaryotic translation initiation factor 4E (P63073 whole entry): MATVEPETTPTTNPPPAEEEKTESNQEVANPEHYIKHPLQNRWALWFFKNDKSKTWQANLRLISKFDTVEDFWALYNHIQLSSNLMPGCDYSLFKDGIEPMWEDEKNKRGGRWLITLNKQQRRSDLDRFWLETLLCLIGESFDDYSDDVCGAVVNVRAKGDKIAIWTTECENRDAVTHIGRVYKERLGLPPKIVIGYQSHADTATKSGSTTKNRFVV

[6] = cytotoxicity toward NIH3T3 fibroblasts, dose response, counter-screen, cell-based, ATP luminescence, mouse fibroblasts (AID 2010); type: functional;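 note: cells exposed to compound for about 90 hours before reading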
[7] = molecular target: T4, DNA repair protein RAD52 homolog (Homo sapiens, UniProt P43351); type: functional, biochemical
T4 sequence (P43351 whole entry): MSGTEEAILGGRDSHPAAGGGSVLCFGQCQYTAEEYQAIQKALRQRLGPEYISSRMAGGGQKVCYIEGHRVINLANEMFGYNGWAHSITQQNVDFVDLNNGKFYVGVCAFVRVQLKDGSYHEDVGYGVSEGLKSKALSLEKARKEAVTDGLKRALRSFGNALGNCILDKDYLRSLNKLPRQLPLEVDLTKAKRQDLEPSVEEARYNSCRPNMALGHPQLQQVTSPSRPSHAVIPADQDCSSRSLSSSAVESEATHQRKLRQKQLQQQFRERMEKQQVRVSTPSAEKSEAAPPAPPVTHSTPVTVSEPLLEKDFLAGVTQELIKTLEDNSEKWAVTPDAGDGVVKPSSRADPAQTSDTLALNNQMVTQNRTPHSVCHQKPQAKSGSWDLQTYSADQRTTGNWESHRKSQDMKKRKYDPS

[8] = inhibitors of intracellular T. cruzi replication, confirmation, NIH3T3 host cells, beta-gal luminescence (AID 2044); type: functional, cell-based;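 note: intracellular parasites grown in NIH/3T3 mouse fibroblasts as host cells; luminescent beta-galactosidase reporter signal from transgenic T. cruzi replicating inside host cells; inhibitors lower the luminescence signal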
[9] = molecular target: T5, DNA repair and recombination protein RAD54-like (Homo sapiens, UniProt Q92698); experiment: inhibitors of human RAD54 branch migration, confirmation, biochemical, fluorescence, cherry-picked samples, dose series (AID 651657); type: functional
T5 sequence (Q92698 whole entry): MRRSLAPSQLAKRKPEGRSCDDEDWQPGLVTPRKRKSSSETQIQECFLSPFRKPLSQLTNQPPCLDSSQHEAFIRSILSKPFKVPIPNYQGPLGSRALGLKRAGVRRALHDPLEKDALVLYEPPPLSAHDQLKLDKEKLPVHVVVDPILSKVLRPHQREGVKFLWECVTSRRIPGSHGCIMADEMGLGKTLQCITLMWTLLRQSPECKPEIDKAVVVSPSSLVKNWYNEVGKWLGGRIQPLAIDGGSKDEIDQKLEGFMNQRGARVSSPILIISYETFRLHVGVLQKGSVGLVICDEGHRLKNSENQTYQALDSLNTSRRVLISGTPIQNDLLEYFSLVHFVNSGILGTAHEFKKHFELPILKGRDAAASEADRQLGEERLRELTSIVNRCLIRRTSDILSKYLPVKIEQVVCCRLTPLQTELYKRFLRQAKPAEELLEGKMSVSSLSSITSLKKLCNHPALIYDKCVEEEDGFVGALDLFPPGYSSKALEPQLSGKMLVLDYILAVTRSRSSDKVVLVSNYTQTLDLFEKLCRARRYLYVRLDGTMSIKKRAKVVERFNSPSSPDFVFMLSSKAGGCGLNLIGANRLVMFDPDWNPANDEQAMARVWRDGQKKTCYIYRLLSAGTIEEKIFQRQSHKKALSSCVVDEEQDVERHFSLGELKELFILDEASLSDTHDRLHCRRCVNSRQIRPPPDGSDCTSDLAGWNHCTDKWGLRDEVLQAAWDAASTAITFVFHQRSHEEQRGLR

cells [10] = type: functional, cell-based
cells [11] = type: functional, cell-based; remark: listed apart in the source
[12] = molecular target: T6, Trace amine-associated receptor 1 (Homo sapiens, UniProt Q96RJ0); experiment: Fluorescence-based cell-based high throughput dose response assay to identify agonists of the human trace amine associated receptor 1 (TAAR1).; type: functional
T6 sequence (Q96RJ0 whole entry): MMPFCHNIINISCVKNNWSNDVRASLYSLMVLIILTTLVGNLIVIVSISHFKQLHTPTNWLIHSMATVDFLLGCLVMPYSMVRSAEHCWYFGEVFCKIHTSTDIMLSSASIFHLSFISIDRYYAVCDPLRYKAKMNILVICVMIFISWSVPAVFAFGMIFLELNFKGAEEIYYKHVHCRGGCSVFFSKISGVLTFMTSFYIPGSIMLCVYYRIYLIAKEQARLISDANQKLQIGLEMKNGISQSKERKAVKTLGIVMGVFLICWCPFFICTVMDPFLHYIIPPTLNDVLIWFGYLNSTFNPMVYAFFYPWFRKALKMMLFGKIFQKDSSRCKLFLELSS

[13] = molecular target: T6, Trace amine-associated receptor 1; experiment: Counterscreen for agonists of the human trace amine associated receptor 1 (hTAAR1): Fluorescence-based cell-based high throughput dose response assay to identify hTAAR1 agonist that also desensitize TAAR1 receptor response.; type: functional
[14] = ZM109 Env clade C HIV-1 fusion inhibitors, dose response, HeLa effector, CEM target cells, luciferase, cherry-pick (AID 652058); type: functional, cell-based
[15] = inhibitors of clade B AD8 Env fusion, dose response, cell-based, cherry-pick (AID 652062); type: functional;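 note: luciferase signal from cell-cell fusion driven by HIV-1 clade B AD8 Env; potency is for inhibitors of fusion seen as a drop in luminescence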
[16] = inhibitors of HIV Env-driven cell fusion, dose response, cherry-pick (AID 652057); type: functional, cell-based
[17] = A549 cell cytotoxicity, dose response, cytotoxicity control, plate reader, cherry-pick, antagonist series (AID 743412); type: functional, cell-based
[18] = molecular target: T3, Short transient receptor potential channel 4; experiment: mouse TRPC4 channel inhibitors, dose response, cell-based, HEK293 TRPC4/mu-opioid, Fluo-4 calcium (AID 434942); type: functional;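 note: potency of inhibitors blocking the TRPC4 calcium response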
Large T antigen = Large T antigen (Simian virus 40, UniProt P03070); type: functional, Betapolyomavirus macacae;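 note: Confirmatory-stage PubChem screen for compounds that inhibit SV40 T antigen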
Chain of Large T antigen (P03070 whole entry): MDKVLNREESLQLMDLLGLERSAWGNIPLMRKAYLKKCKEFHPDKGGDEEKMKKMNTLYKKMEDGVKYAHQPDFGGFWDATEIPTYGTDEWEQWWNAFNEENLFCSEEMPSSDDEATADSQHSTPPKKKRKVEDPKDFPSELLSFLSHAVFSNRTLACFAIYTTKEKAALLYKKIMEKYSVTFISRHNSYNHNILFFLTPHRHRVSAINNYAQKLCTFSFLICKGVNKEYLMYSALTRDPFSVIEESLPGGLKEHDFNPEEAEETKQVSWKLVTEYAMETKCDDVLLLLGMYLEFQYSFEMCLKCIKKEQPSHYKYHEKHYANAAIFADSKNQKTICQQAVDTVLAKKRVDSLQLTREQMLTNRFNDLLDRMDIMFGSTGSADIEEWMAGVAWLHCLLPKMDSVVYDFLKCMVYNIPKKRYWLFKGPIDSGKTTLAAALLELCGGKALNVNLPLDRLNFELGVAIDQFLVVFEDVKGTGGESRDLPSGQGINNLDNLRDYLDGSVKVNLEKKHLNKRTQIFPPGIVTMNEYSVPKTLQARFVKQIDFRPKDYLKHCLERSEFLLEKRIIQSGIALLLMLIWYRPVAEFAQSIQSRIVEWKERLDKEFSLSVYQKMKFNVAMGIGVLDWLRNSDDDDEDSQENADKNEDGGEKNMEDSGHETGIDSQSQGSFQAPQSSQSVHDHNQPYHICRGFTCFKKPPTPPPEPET

[19] = molecular target: FAD-linked sulfhydryl oxidase ALR (Homo sapiens, UniProt P55789); experiment: inhibitors of human ALR sulfhydryl oxidase, dose response, biochemical, H2O2 detection, luminescence, cherry-pick (AID 493248)
Chain of FAD-linked sulfhydryl oxidase ALR (P55789 whole entry): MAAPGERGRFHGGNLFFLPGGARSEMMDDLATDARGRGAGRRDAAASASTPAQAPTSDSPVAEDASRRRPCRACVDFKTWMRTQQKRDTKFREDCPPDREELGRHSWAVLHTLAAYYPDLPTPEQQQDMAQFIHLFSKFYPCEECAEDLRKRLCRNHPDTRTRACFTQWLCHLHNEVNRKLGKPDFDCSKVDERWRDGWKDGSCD

Chain of Mitogen-activated protein kinase 10 (P53779 whole entry, the tested form may be a part): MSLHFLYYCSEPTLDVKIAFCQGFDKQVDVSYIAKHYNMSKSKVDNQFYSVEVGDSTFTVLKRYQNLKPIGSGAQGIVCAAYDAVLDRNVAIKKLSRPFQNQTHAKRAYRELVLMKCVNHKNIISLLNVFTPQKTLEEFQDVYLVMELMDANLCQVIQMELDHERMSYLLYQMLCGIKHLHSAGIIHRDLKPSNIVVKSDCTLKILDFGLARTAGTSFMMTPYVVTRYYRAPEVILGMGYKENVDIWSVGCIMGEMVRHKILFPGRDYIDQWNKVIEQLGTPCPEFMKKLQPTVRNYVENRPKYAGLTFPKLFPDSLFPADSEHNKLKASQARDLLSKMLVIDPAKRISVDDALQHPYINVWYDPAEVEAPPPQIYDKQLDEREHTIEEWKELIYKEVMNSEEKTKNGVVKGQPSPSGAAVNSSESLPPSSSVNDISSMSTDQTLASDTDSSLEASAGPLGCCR

SMILES: O=C(CCCn1c(=S)[nH]c2ccccc2c1=O)NCc1ccco1
- IC50 [1]: 49.2 µM (not active)

SMILES: Cc1csc2nc(NC(=O)c3ccccc3)sc(=O)c12
- IC50 [2]: 7.03 µM (active)
- IC50 [3]: 29.8 µM (inactive)
- AC50 (INS1): > 260 µM (inactive)

SMILES: CN(CCc1ccccn1)C1CC(=O)N(c2ccc(Cl)cc2)C1=O (configuration not stated)
- EC50 [4]: 2.11 µM (active)

SMILES: O=C(O)CSc1nnc(COc2cccc3cccnc23)n1-c1cccc(C(F)(F)F)c1
- IC50 [5]: 50 µM (inactive)

SMILES: CCOC(=O)c1c(C)[nH]c2ccc(O)cc12
- IC50 [1]: > 93.1 µM (not active)

SMILES: CCOC(=O)c1c(NC(=O)C[n+]2ccc(Cc3ccccc3)cc2)sc(C)c1C
- EC50 [6]: > 60 µM (not active)
- AC50 [7]: 20.5 µM (active)
- EC50 [8]: 1.83 µM (active)
- AC50 (INS1): 5.35 µM (active)

SMILES: N#CCCSc1ncnc2c1oc1ccccc12
- IC50 [1]: 27.7 µM (not active)

SMILES: CCOc1cc2[nH]c(=O)n(Cc3ccc(C(=O)NCCCN4CCC(C)CC4)cc3)c(=O)c2cc1OCC
- AC50 [9]: 55.9 µM (active)

SMILES: CN1CCN(CCCC(=O)c2ccc(C3CCCC3)cc2)CC1
- AC50 [7]: 19.7 µM (active)

SMILES: Cn1nnnc1SCc1ccc(C(=O)Nc2nccs2)cc1
- IC50 [1]: 56.9 µM (not active)

SMILES: Cc1cccc(NC(=O)COc2ccc(/C=C\c3nc(O)nc(O)c3[N+](=O)[O-])cc2)c1
- IC50 [2]: 1.78 µM (active)
- IC50 [3]: 80 µM (inactive)

SMILES: Cc1cccn2c(=O)c3cc(C(=O)NCC4CCCO4)c(=N)n(C4CCCCC4)c3nc12 (configuration not stated)
- AC50 [9]: 56 µM (active)

SMILES: COc1ccc(C(CNC(=O)c2cc(SC)ccc2Cl)N(C)C)cc1 (configuration not stated)
- EC50 [4]: 0.944 µM (active)

SMILES: O=C(O)C1C2C=CC(C2)C1C(=O)NCCC1=CCCCC1 (configuration not stated)
- IC50 (cells [10]): > 29.9 µM (inactive)
- EC50 (cells [11]): > 29.9 µM (inactive)
- EC50 [12]: 0.916 µM (active)
- IC50 [13]: > 29.9 µM (inactive)

SMILES: CCOC(=O)[C@]12CCCC=C1N(CCC1=CCCCC1)C(=O)[C@H](CC(=O)NCCc1ccccc1OC)C2
- IC50 (cells [10]): 26.9 µM (inactive)
- EC50 (cells [11]): > 29.9 µM (inactive)
- EC50 [12]: 3.59 µM (active)
- IC50 [13]: 5.92 µM (active)

SMILES: O=C(NCCc1ccc(O)cc1)c1[nH]c(C(F)(F)F)nc1-c1ccccc1
- IC50 (cells [10]): > 29.9 µM (inactive)
- EC50 (cells [11]): > 29.9 µM (inactive)
- EC50 [12]: 0.485 µM (active)
- IC50 [13]: 5.53 µM (active)

SMILES: C[C@@H]1CN([C@@H](C)CO)C(=O)c2ccccc2-c2ccccc2CO[C@@H]1CN(C)C(=O)Nc1ccc2c(c1)OCO2
- AC50 [14]: 0.54 µM (active)
- AC50 [15]: 1.6 µM (active)
- AC50 [16]: 0.318 µM (active)

SMILES: COCC(=O)N[C@@H]1CC[C@@H](CC(=O)NCc2ccccc2OC)O[C@@H]1CO
- AC50 [17]: > 52 µM (inactive)

SMILES: NCCCCCC(=O)N/N=C/c1ccc2nccnc2c1
- AC50 [7]: 16.3 µM (active)

SMILES: COc1ccccc1Nc1nc(NCC2CCCO2)c2ccccc2n1 (configuration not stated)
- EC50 [6]: > 60 µM (not active)
- EC50 [18]: 2.66 µM (active)
- AC50 [9]: 81.9 µM (active)
- EC50 [8]: 0.194 µM (active)

SMILES: Oc1ccc(C2CNCCc3c2cc(O)c(O)c3Cl)cc1 (configuration not stated) [FENOLDOPAM MESYLATE]
- IC50 (Large T antigen): > 100 µM (active)
- IC50 (cells [10]): > 29.9 µM (inactive)
- AC50 [7]: 21.7 µM (active)
- EC50 (cells [11]): > 29.9 µM (inactive)
- EC50 [12]: 2.7 µM (active)
- IC50 [13]: 8.04 µM (active)
- AC50 [19]: 1.37 µM (active)
